Results on 38 molecules are retold here after patent US7776847B2, “Benzisothiazoles useful for treating or preventing HCV infection” (priority 2005, dated 2010).

pIC50: −log10 of the molar value.

One assay deals with HCV replicon. Description: HCV replicon luciferase reporter assay. Conditions: Hepatitis C virus. It is filed as cell-based. Details: scale not given here. How it is done:
The inhibitory activity of certain exemplary compounds of the invention was confirmed using an HCV replicon assay. The HCV replicon can include such features as the HCV IRES, the HCV 3′ untranslated region, selected HCV genes encoding HCV polypeptides, selectable markers, and a reporter gene such as luciferase, GFP, etc. In the assay, actively dividing replicon-comprising cells were seeded at a density of between about 5,000 and 7,500 cells/well onto 96 well plates (about 90 μl of cells per well) and incubated at 37° C. and 5% CO2 for 24 hours. Then, the test compound (in a volume of about 10 μL) was added at various concentrations to each well and the cells were incubated for an additional 24-48 hours. The cells were harvested, and HCV replication or translation was monitored via a reporter assay, e.g., a luciferase reporter assay. The media was aspirated from each cell and Bright-Glo ([…].) luciferase assay reagents were added to each well according to the manufacturer's instructions. In this assay, the amount of test compound that yielded a 50% reduction in luciferase activity (IC50) was determined.
`O=C(N1CCc2ccc(S(=O)(=O)NCCCNc3nsc4ccccc34)cc2C1)C(F)(F)F` [Compound 252, N-(3-(benzo[d]isothiazol-3-ylamino)propyl)-2-(2,2,2-trifluoroacetyl)-1,2,3,4-tetrahydroisoquinoline-7-sulfonamide] gave a pIC50 greater than 5.30.

The same assay, now with this note: Hepatitis C virus, Table 5; read-out: IC50.
Take `O=[N+]([O-])c1cccc(S(=O)(=O)NCCCNc2nsc3ccccc23)c1` [Compound 242, N-(3-(benzo[d]isothiazol-3-ylamino)propyl)-3-nitrobenzenesulfonamide]: the negative-log IC50 (pIC50) was greater than 5.30.

Turning to `COC(=O)c1ccccc1S(=O)(=O)NCCCNc1nsc2ccccc12` [Compound 243, methyl 2-(N-(3-(benzo[d]isothiazol-3-ylamino)propyl)sulfamoyl)benzoate], the negative logarithm of the IC50 (pIC50) is greater than 5.30.

As to `COC(=O)c1ccc(S(=O)(=O)NCCCNc2nsc3ccccc23)o1` [Compound 244, methyl 5-(N-(3-(benzo[d]isothiazol-3-ylamino)propyl)sulfamoyl)furan-2-carboxylate], the pIC50 is greater than 5.30.

As to `O=S(=O)(NCCCNc1nsc2ccccc12)c1ccc(C(F)(F)F)cc1` [Compound 245, N-(3-(benzo[d]isothiazol-3-ylamino)propyl)-4-(trifluoromethyl)benzenesulfonamide], the pIC50 was greater than 5.30.

`O=S(=O)(NCCCNc1nsc2ccccc12)c1cc(C(F)(F)F)cc(C(F)(F)F)c1` [Compound 246, N-(3-(benzo[d]isothiazol-3-ylamino)propyl)-3,5-bis(trifluoromethyl)benzenesulfonamide]: the pIC50 is greater than 5.30.

`Cc1nc(S(=O)(=O)NCCCNc2nsc3ccccc23)cn1C` [Compound 248, N-(3-(benzo[d]isothiazol-3-ylamino)propyl)-1,2-dimethyl-1H-imidazole-4-sulfonamide]: the pIC50 is greater than 5.30.

On to `O=S(=O)(NCCCNc1nsc2ccccc12)c1cccc2cccnc12` [Compound 249, N-(3-(benzo[d]isothiazol-3-ylamino)propyl)quinoline-8-sulfonamide], for which the pIC50 is greater than 5.30.

For `O=S(=O)(NCCCNc1nsc2ccccc12)c1ccc(F)c(F)c1F` [Compound 250, N-(3-(benzo[d]isothiazol-3-ylamino)propyl)-2,3,4-trifluorobenzenesulfonamide], the pIC50 was greater than 5.30.

Take `COc1ccc(S(=O)(=O)NCCCNc2nsc3ccccc23)cc1` [Compound 251, N-(3-(benzo[d]isothiazol-3-ylamino)propyl)-4-methoxybenzenesulfonamide]: the pIC50 was greater than 5.30.

For the molecule `O=S(=O)(NCCCNc1nsc2ccccc12)c1c(F)cc(F)cc1Br` [Compound 253, N-(3-(benzo[d]isothiazol-3-ylamino)propyl)-2-bromo-4,6-difluorobenzenesulfonamide], the pIC50 was greater than 5.30.

Consider `O=S(=O)(c1ccccc1C(F)(F)F)N(CCCNc1nsc2ccccc12)Cc1ccccc1` [Compound 254, N-(3-(benzo[d]isothiazol-3-ylamino)propyl)-N-benzyl-2-(trifluoromethyl)benzenesulfonamide], for which the pIC50 is greater than 5.30.

For `COc1ccc(-c2ccc(CN(CCCNc3nsc4ccccc34)C(=O)CN3CCOCC3)cc2)cc1` [Compound 255, N-(3-(benzo[d]isothiazol-3-ylamino)propyl)-N-((4′-methoxybiphenyl-4-yl)methyl)-2-morpholinoacetamide], the negative logarithm of the IC50 (pIC50) is greater than 5.30.

For `COc1ccc(-c2ccc(CN(CCCNc3nsc4ccccc34)C(=O)CN3CCN(c4ccccc4)CC3)cc2)cc1` [Compound 256, N-(3-(benzo[d]isothiazol-3-ylamino)propyl)-N-((4′-methoxybiphenyl-4-yl)methyl)-2-(4-phenylpiperazin-1-yl)acetamide], the negative-log IC50 (pIC50) was greater than 5.30.

For the molecule `COc1ccc(-c2ccc(CN(CCCNc3nsc4ccccc34)C(=O)CNC(C)C)cc2)cc1` [Compound 257, N-(3-(benzo[d]isothiazol-3-ylamino)propyl)-2-(isopropylamino)-N-((4′-methoxybiphenyl-4-yl)methyl)acetamide], the pIC50 was greater than 5.30.

On to `COc1ccc(NS(=O)(=O)c2ccc(CNCCCNc3nsc4ccccc34)cc2)cc1` [Compound 258, 4-((3-(benzo[d]isothiazol-3-ylamino)propylamino)methyl)-N-(4-methoxyphenyl)benzenesulfonamide], for which the pIC50 is greater than 5.30.

As to `O=S(=O)(c1ccc(CNCCCNc2nsc3ccccc23)cc1)N1CCOCC1` [Compound 259, N^1-(benzo[d]isothiazol-3-yl)-N^3-(4-(morpholinosulfonyl)benzyl)propane-1,3-diamine], the pIC50 is less than 5.30.

In the case of `O=S(=O)(c1ccc(CNCCCNc2nsc3ccccc23)cc1)N1CCCC1` [Compound 260, N^1-(benzo[d]isothiazol-3-yl)-N^3-(4-(pyrrolidin-1-ylsulfonyl)benzyl)propane-1,3-diamine], the pIC50 was less than 5.30.

In the case of `COc1ccc(OC)c(S(=O)(=O)NCCCNc2nsc3ccccc23)c1` [Compound 261, N-(3-(benzo[d]isothiazol-3-ylamino)propyl)-2,5-dimethoxybenzenesulfonamide], the pIC50 was greater than 5.30.

On to `O=S(=O)(NCCCNc1nsc2ccccc12)c1ccc(Br)cc1Cl` [Compound 262, N-(3-(benzo[d]isothiazol-3-ylamino)propyl)-4-bromo-2-chlorobenzenesulfonamide], for which the pIC50 is greater than 5.30.

Take `O=S(=O)(NCCCNc1nsc2ccccc12)c1ccc(Br)cc1C(F)(F)F` [Compound 263, N-(3-(benzo[d]isothiazol-3-ylamino)propyl)-4-bromo-2-(trifluoromethyl)benzenesulfonamide]: the pIC50 is greater than 5.30.

For the molecule `COc1ccc(S(=O)(=O)NCCCNc2nsc3ccccc23)cc1OC` [Compound 264, N-(3-(benzo[d]isothiazol-3-ylamino)propyl)-3,4-dimethoxybenzenesulfonamide], the pIC50 is greater than 5.30.

In the case of `Cc1cc(S(=O)(=O)NCCCNc2nsc3ccccc23)ccc1Br` [Compound 265, N-(3-(benzo[d]isothiazol-3-ylamino)propyl)-4-bromo-3-methylbenzenesulfonamide], the pIC50 is greater than 5.30.

In the case of `O=S(=O)(NCCCNc1nsc2ccccc12)c1cccc(OC(F)(F)F)c1` [Compound 266, N-(3-(benzo[d]isothiazol-3-ylamino)propyl)-3-(trifluoromethoxy)benzenesulfonamide], the negative logarithm of the IC50 (pIC50) is greater than 5.30.

`O=S(=O)(NCCCNc1nsc2ccccc12)c1c(Cl)cc(Br)cc1Cl` [Compound 267, N-(3-(benzo[d]isothiazol-3-ylamino)propyl)-4-bromo-2,6-dichlorobenzenesulfonamide]: the pIC50 was greater than 5.30.

On to `O=S(=O)(NCCCNc1nsc2ccccc12)c1cccc(Br)c1` [Compound 268, N-(3-(benzo[d]isothiazol-3-ylamino)propyl)-3-bromobenzenesulfonamide], for which the pIC50 is greater than 5.30.

Regarding `O=S(=O)(NCCCNc1nsc2ccccc12)c1ccc(Br)c(C(F)(F)F)c1` [Compound 269, N-(3-(benzo[d]isothiazol-3-ylamino)propyl)-4-bromo-3-(trifluoromethyl)benzenesulfonamide], the pIC50 was greater than 5.30.

On to `COc1ccc(-c2ccc(CN(CCCNc3nsc4ccccc34)S(=O)(=O)c3ccccc3C(F)(F)F)cc2)cc1` [Compound 270, N-(3-(benzo[d]isothiazol-3-ylamino)propyl)-N-((4′-methoxybiphenyl-4-yl)methyl)-2-(trifluoromethyl)benzenesulfonamide], for which the pIC50 is greater than 5.30.

For `CCCc1ccc(C(=O)NCCCNc2nsc3ccccc23)cc1` [Compound 273, N-(3-(benzo[d]isothiazol-3-ylamino)propyl)-4-propylbenzamide], the pIC50 is greater than 5.30.

In the case of `COc1cccnc1NCCCNc1nsc2ccccc12` [Compound 275, N^1-(benzo[d]isothiazol-3-yl)-N^3-(3-methoxypyridin-2-yl)propane-1,3-diamine], the pIC50 is greater than 5.30.

Consider `FC(F)(F)c1cccnc1NCCCNc1nsc2ccccc12` [Compound 276, N^1-(benzo[d]isothiazol-3-yl)-N^3-(3-(trifluoromethyl)pyridin-2-yl)propane-1,3-diamine], for which the pIC50 was greater than 5.30.

For `N#Cc1cccnc1NCCCNc1nsc2ccccc12` [Compound 277, 2-(3-(benzo[d]isothiazol-3-ylamino)propylamino)nicotinonitrile], the negative logarithm of the IC50 (pIC50) is greater than 5.30.

`Cc1cccnc1NCCCNc1nsc2ccccc12` [Compound 278, N^1-(benzo[d]isothiazol-3-yl)-N^3-(3-methylpyridin-2-yl)propane-1,3-diamine]: the pIC50 is greater than 5.30.

For `CCCCc1ccc(C(=O)NCCNc2nsc3ccccc23)nc1` [Compound 279, N-(2-(benzo[d]isothiazol-3-ylamino)ethyl)-5-butylpicolinamide], the pIC50 was greater than 5.30.

Take `CCCCc1ccc(C(=O)NC(CNc2nsc3ccccc23)C(=O)O)cc1` (centres unmarked) [Compound 280, 3-(benzo[d]isothiazol-3-ylamino)-2-(4-butylbenzamido)propanoic acid]: the pIC50 was less than 5.30.

In the case of `Cc1cccc(NCCCNc2nsc3ccccc23)n1` [Compound 281, N^1-(benzo[d]isothiazol-3-yl)-N^3-(6-methylpyridin-2-yl)propane-1,3-diamine], the pIC50 was greater than 5.30.

The assay is the same for the next values; noted with them: Table 5; the head prints only IC50; b387 says Tables 5 and 6 hold Replicon reporter and Western blot results.
`O=S(=O)(NCCNc1nsc2ccccc12)c1ccc(Cl)cc1` [Compound 271, N-(2-(benzo[d]isothiazol-3-ylamino)ethyl)-4-chlorobenzenesulfonamide]: the IC50 result was “A, B”.

As to `c1ccc(CNCCNc2nsc3ccccc23)nc1` [Compound 272, N^1-(benzo[d]isothiazol-3-yl)-N^2-(pyridin-2-ylmethyl)ethane-1,2-diamine], the IC50 entry is given as “A, B”.

Broadly, the pIC50 is the IC50 on a negative log10 scale, so that one unit is a factor of ten.
